Data: patent publication US8383615B2, “Azetidine 2-carboxamide derivatives which modulate the CB2 receptor” (Boehringer Ingelheim International GmbH, priority 2009, dated 2013)

molecular target: T1, human CB2R (Homo sapiens, UniProt P34972); test: CB2R mediated modulation of cAMP synthesis; type: cell-based; details: CB2 EC50 (nM), CHO cells expressing human CB2R; inhibition of forskolin-stimulated cAMP synthesis; agonist
T1 construct: host or cells: CHO cells
Method: B. CB2R Mediated Modulation of cAMP Synthesis:
Compounds of the invention were evaluated for their CB2 agonist or inverse agonistic activity in accordance with the following experimental method.
CHO cells expressing human CB2R (Euroscreen) were plated at a density of 5000 cells per well in 384 well plates and incubated overnight at 37° C. After removing the media, the cells were treated with test compounds diluted in stimulation buffer containing 1 mM IBMX, 0.25% BSA and 10 uM Forskolin. The assay was incubated for 30 minutes at 37° C. Cells were lysed and the cAMP concentration was measured using DiscoverX-XS cAMP kit, following the manufacturer's protocol. In this setting, agonists will decrease forskolin induced production of cAMP while inverse agonists will further increase forskolin induced production of cAMP. EC50 of agonists were calculated as follows. The maximal amount of cAMP produced by forskolin compared to the level of cAMP inhibited by 1 uM CP55940 is defined as 100%. The EC50 value of each test compound was determined as the concentration at which 50% of the forskolin-stimulated cAMP synthesis was inhibited. Data was analyzed using a four-parameter logistic model. (Model 205 of XLfit 4.0).

T1 sequence (P34972 whole entry): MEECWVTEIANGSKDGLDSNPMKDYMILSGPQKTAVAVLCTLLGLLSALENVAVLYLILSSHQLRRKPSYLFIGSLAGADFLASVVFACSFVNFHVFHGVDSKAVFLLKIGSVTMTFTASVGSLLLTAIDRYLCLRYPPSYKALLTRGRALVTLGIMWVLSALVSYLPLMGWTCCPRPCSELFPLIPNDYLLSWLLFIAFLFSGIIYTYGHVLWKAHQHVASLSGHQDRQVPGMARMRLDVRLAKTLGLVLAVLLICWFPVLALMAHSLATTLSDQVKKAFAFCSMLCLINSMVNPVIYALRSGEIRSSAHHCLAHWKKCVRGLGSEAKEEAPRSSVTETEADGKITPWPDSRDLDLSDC

Row | Compound | EC50 [nM]
1 | CC(C)(C)c1coc(NC(=O)[C@@H]2CCN2C2CCOCC2)n1 | 206
2 | O=C(Nc1nc2cc(Cl)ccc2s1)[C@@H]1CCN1C1CCOCC1 | 86
3 | O=C(Nc1nc(C2CCCCC2)cs1)[C@@H]1CCN1C1CCOCC1 | 56
4 | CC(C)(C)c1cc(NC(=O)[C@@H]2CCN2C2CCOCC2)sn1 | 313
5 | CC(C)(C)c1nsc(NC(=O)[C@@H]2CCN2C2CCOCC2)n1 | 471
6 | O=C(Nc1nc(-c2ccc(F)c(F)c2)cs1)[C@@H]1CCN1C1CCOCC1 | 203
7 | O=C(Nc1nc2c(F)cccc2s1)[C@@H]1CCN1C1CCOCC1 | 153
8 | CC(C)(C)Cc1cc(NC(=O)[C@@H]2CCN2C2CCOCC2)on1 | 243
9 | CCc1sc(NC(=O)[C@@H]2CCN2c2ncc(C(F)(F)F)cc2Cl)nc1-c1ccccc1 | 2.7
10 | CCc1sc(NC(=O)[C@@H]2CCN2CC2CCOCC2)nc1-c1ccccc1 | 4.1
11 | CCc1sc(NC(=O)[C@@H]2CCN2C2CCOCC2)nc1-c1ccccc1 | 116
12 | CCc1sc(NC(=O)[C@@H]2CCN2c2ccc(C(F)(F)F)cn2)nc1-c1ccccc1 | 128
13 | CC(C)(C)c1cc(NC(=O)[C@@H]2CCN2c2ccc(C(F)(F)F)cn2)on1 | 0.67
14 | CC(C)(C)c1cc(NC(=O)[C@@H]2CCN2c2ccc(Cl)cc2)no1 | 1.7
15 | CC(C)(C)c1cc(NC(=O)[C@@H]2CCN2c2ccc(Cl)cc2)on1 | 0.75
16 | O=C(Nc1cc(C(F)(F)F)no1)[C@@H]1CCN1c1ccc(Cl)cc1 | 43
17 | CC(C)N1CC[C@H]1C(=O)Nc1cc(C(C)(C)C)no1 | 26
18 | CC(C)(C)c1cc(NC(=O)[C@@H]2CCN2C2CCCC2)on1 | 6.6
19 | CC(C)(C)c1cc(NC(=O)[C@@H]2CCN2C2CCCCC2)on1 | 0.08

Row | Compound | EC50 [nM]
20 | CC(C)(C)c1cc(NC(=O)[C@@H]2CCN2Cc2ccc(F)c(F)c2)on1 | 14
21 | CC(C)(C)c1cc(NC(=O)[C@@H]2CCN2S(=O)(=O)c2ccc(S(C)(=O)=O)cc2)no1 | 197
22 | CCCS(=O)(=O)N1CC[C@H]1C(=O)Nc1cc(C(C)(C)C)on1 | 157
23 | CC(C)(C)c1cc(NC(=O)[C@@H]2CCN2S(=O)(=O)c2ccc(S(C)(=O)=O)cc2)on1 | 357
24 | COCC(C)(C)c1cc(NC(=O)[C@@H]2CCN2c2ccc(Cl)cc2)no1 | 12
25 | CC(C)(C)c1cc(NC(=O)[C@@H]2CC(=O)N2c2ccc(Cl)cc2)on1 | 17
26 | CC(C)(C)c1cc(NC(=O)[C@@H]2CC(=O)N2c2ccc(Cl)cc2)no1 | 50
27 | CC(C)(CO)c1cc(NC(=O)[C@@H]2CCN2c2ncc(C(F)(F)F)cc2Cl)on1 | 0.12
28 | CC(C)(CO)c1cc(NC(=O)[C@@H]2CCN2c2ccc(C(F)(F)F)cn2)on1 | 18
29 | CC(C)(CO)c1cc(NC(=O)[C@@H]2CCN2c2ccc(Cl)cc2)on1 | 18
30 | CC(C)(CO)c1cc(NC(=O)[C@@H]2CCN2c2ccc(F)cc2)on1 | 22
31 | COCC(C)(C)c1cc(NC(=O)[C@@H]2CCN2c2ccc(F)cc2)no1 | 7.7
32 | COCC(C)(C)c1cc(NC(=O)[C@@H]2CCN2c2ccc(F)cc2)on1 | 5.6
33 | COCC(C)(C)c1cc(NC(=O)[C@@H]2CCN2C2CCOCC2)on1 | 75
34 | CC(C)(C)c1cc(NC(=O)[C@@H]2CCN2c2ncc(C(F)(F)F)cc2Cl)no1 [drawing 125] | 0.02
35 | CC(C)(C)c1cc(NC(=O)[C@@H]2CCN2c2ncc(C(F)(F)F)cc2Cl)no1 [drawing 126] | 0.05
36 | CC(C)(C)c1cc(NC(=O)[C@@H]2CCN2C2CCOCC2)no1 [drawing 128] | 8.8
37 | CC(C)(C)c1cc(NC(=O)[C@@H]2CCN2C2CCOCC2)no1 [drawing 132] | 18

same assay, conditions: CHO cells expressing human CB2R; inhibition of forskolin-stimulated cAMP synthesis; agonist; read-out: CB2 EC50

Row | Compound | EC50 [nM]
38 | O=C(Nc1nc(-c2ccccc2)cs1)[C@@H]1CCN1C1CCOCC1 | 465
39 | O=C(Nc1ccc(C(F)(F)F)c(F)c1)[C@@H]1CCN1C1CCOCC1 | 371
40 | CC(C)(C)c1cc(NC(=O)[C@@H]2CCN2C(=O)C2CCC(F)(F)CC2)no1 | 127
